{"source": "ChEMBL document CHEMBL5543113", "about": "“Amphiphilic α-Peptoid-deoxynojirimycin Conjugate-based Multivalent Glycosidase Inhibitor for Hypoglycemic Effect and Fluorescence Imaging” (J Med Chem, 2024)", "key": {"[1]": {"tested_on": "Mus musculus", "test": "Hypoglycemic activity in KKAy diabetic mouse model assessed as blood glucose level at 1.6 mg/kg, po co-administered with maltose and measured after 120 mins by glucometer (reference value: 582.6 +/- 22.9 mg/dl)", "type": "functional", "details": "2 h; call rule not given here"}, "[2]": {"test": "Self assembly property of compound in citric acid-phosphate buffer at pH 2 to 7 at 1 x 10^-4 M assessed as diameter by dynamic light scattering spectrometric analysis", "type": "physicochemical", "details": "pH 2, 100 µM, dose 1 10^-4M"}, "[3]": {"tested_on": "Mus musculus", "test": "Hypoglycemic activity in C57BL/6J mouse assessed as blood glucose level at 0.4 mg/kg, po co-administered with maltose and measured after 30 mins by glucometer (380.8 +/- 20.6 mg/dL)", "type": "functional", "details": "0.5 h"}, "[4]": {"test": "Drug uptake in C57/6J mouse heart assessed as increase in fluorescence at 5 x 10^-5M, po administered as Nile red complex and measured after 4 hrs by fluorescence imaging analysis", "type": "ADME, organism-based", "details": "in vivo, dose 5 10^-5M"}, "[5]": {"test": "Drug uptake in C57/6J mouse lung assessed as increase in fluorescence at 5 x 10^-5M, po administered as Nile red complex and measured after 4 hrs by fluorescence imaging analysis", "type": "ADME, organism-based", "details": "in vivo, dose 5 10^-5M"}, "[6]": {"test": "Toxicity in C57BL/6J mouse assessed as effect on kidney morphology at 1.6 mg/kg, po co-administered with maltose for 7 days by Hematoxylin and eosin staining based analysis", "type": "organism-based", "details": "in vivo, 168 h, time 7 day"}, "[7]": {"test": "Toxicity in C57BL/6J mouse assessed as effect on liver morphology at 1.6 mg/kg, po co-administered with maltose for 7 days by Hematoxylin and eosin staining based analysis", "type": "organism-based", "details": "in vivo, 168 h, time 7 day"}, "[8]": {"tested_on": "Mus musculus", "test": "Hypoglycemic activity in C57BL/6J mouse assessed as reduction in PBG level measured per DNJ unit at 0.4 mg/kg, po co-administered with maltose and measured at 15 to 30 mins by glucometer relative to control", "type": "functional", "parameters": "scale not given: the % may be the effect or the level left", "details": "time 15-30 min"}, "[9]": {"tested_on": "Mus musculus", "test": "Hypoglycemic activity in C57BL/6J mouse assessed as decrease in PBG level at 1.6 mg/kg, po co-administered with maltose and measured after 15 mins by glucometer relative to control", "type": "functional", "parameters": "scale not given: the % may be the effect or the level left", "details": "0.25 h"}, "[10]": {"test": "Binding affinity to mouse alpha-glucosidase assessed as binding constant administered as Nile red complex by fluorescence spectra analysis"}, "[11]": {"test": "Self assembly property of the compound assessed as diameter at 7.5 x 10^-5 mol/L by dynamic light scattering spectrometric analysis", "type": "physicochemical", "details": "75 µM; dose 7.5 10^-5mol/L"}, "[12]": {"tested_on": "Mus musculus", "test": "Hypoglycemic activity in C57BL/6J mouse assessed as reduction in PBG level measured per DNJ unit at 0.8 mg/kg, po co-administered with maltose and measured at 15 to 30 mins by glucometer relative to control", "type": "functional", "parameters": "scale not given: the % may be the effect or the level left", "details": "time 15-30 min"}, "[13]": {"test": "Toxicity in C57BL/6J mouse assessed as effect on heart morphology at 1.6 mg/kg, po co-administered with maltose for 7 days by Hematoxylin and eosin staining based analysis", "type": "organism-based", "details": "in vivo, 168 h, time 7 day"}, "[14]": {"tested_on": "Mus musculus", "test": "Binding affinity to mouse alpha-glucosidase assessed as DNJ fluorescence intensity at 2 x 10^-4 M administered as Nile red complex in presence of DNJ by fluorescence spectra analysis (reference value: 1627)", "details": "dose 2.0 10^-4M"}, "[15]": {"tested_on": "Mus musculus", "test": "Hypoglycemic activity in KKAy diabetic mouse model assessed as molar decrease in PBG level at 1.6 mg/kg, po co-administered with maltose and measured after 30 mins by glucometer relative to control", "type": "functional", "parameters": "scale not given: the % may be the effect or the level left", "details": "0.5 h"}, "[16]": {"tested_on": "Mus musculus", "test": "Hypoglycemic activity in KKAy diabetic mouse model assessed as blood glucose level at 1.6 mg/kg, po co-administered with maltose and measured after 60 mins by glucometer (reference value: 582.6 +/- 22.9 mg/dl)", "type": "functional", "details": "1 h"}, "[17]": {"tested_on": "Mus musculus", "test": "Hypoglycemic activity in C57BL/6J mouse assessed as decrease in PBG level at 0.4 mg/kg, po co-administered with maltose and measured after 30 mins by glucometer relative to control", "type": "functional", "parameters": "scale not given: the % may be the effect or the level left", "details": "0.5 h"}, "[18]": {"test": "Stability of compound assessed as fluorescence intensity at 2 x 10^-4 M administered as Nile red complex at pH 1.0 to 7.0 by fluorescence spectra analysis 9Rvb = 3548)", "type": "physicochemical", "details": "pH 1, 200 µM; dose 2 10^-4M"}, "[19]": {"test": "Self assembly property of the compound assessed as diameter at 2.5 x 10^-5 mol/L by dynamic light scattering spectrometric analysis", "type": "physicochemical", "details": "25 µM; dose 2.5 10^-5mol/L"}, "[20]": {"test": "Self assembly property of compound assessed as Nilered-compound complex formation by measuring increase in fluorescence intensity by Nile red dye based fluorescence analysis", "type": "physicochemical"}, "[21]": {"test": "Inhibition of C57BL/6J mouse Alpha-glucosidase incubated for 10 mins by Lineweaver-Burk plot analysis"}, "[22]": {"test": "Self assembly property of the compound in water assessed as mean diameter at 1 x 10^-4 M by dynamic light scattering spectrometric analysis", "type": "physicochemical", "details": "buffer, 100 µM; dose 1 10^-4M"}, "[23]": {"test": "Cytotoxicity against human GES1 cells assessed as viable cells at 125 uM incubated for 44 hrs by MTT assay relative to control", "type": "toxicity, cell-based", "details": "read-out: Activity"}, "[24]": {"tested_on": "Mus musculus", "test": "Hypoglycemic activity in C57BL/6J mouse assessed as blood glucose level at 0.8 mg/kg, po co-administered with maltose and measured after 15 mins by glucometer (380.8 +/- 20.6 mg/dl)", "type": "functional", "details": "0.25 h"}, "[25]": {"test": "Drug uptake in C57/6J mouse spleen assessed as increase in fluorescence at 5 x 10^-5M, po administered as Nile red complex and measured after 4 hrs by fluorescence imaging analysis", "type": "ADME, organism-based", "details": "in vivo, dose 5 10^-5M"}, "[26]": {"test": "Drug uptake in C57/6J mouse liver assessed as increase in fluorescence at 5 x 10^-5M, po administered as Nile red complex and measured after 4 hrs by fluorescence imaging analysis", "type": "ADME, organism-based", "details": "in vivo, dose 5 10^-5M"}, "[27]": {"test": "Self assembly property of the compound assessed as diameter at 2 x 10^-4 mol/L by dynamic light scattering spectrometric analysis", "type": "physicochemical", "details": "200 µM; dose 2 10^-4mol/L"}, "[28]": {"tested_on": "Mus musculus", "test": "Hypoglycemic activity in KKAy diabetic mouse model assessed as blood glucose level at 1.6 mg/kg, po co-administered with maltose and measured after 30 mins by glucometer (reference value: 582.6 +/- 22.9 mg/dl)", "type": "functional", "details": "0.5 h"}, "[29]": {"test": "Drug uptake in C57/6J mouse small intestine assessed as increase in fluorescence at 5 x 10^-5M, po administered as Nile red complex and measured upto 2 hrs by fluorescence imaging analysis", "type": "ADME, organism-based", "details": "in vivo, dose 5 10^-5M"}, "[30]": {"test": "Inhibition of Aspergillus niger Alpha-glucosidase incubated for 10 mins by Lineweaver-Burk plot analysis"}, "[31]": {"tested_on": "Mus musculus", "test": "Relative hypoglycemic rate in KKAy diabetic mouse model assessed as reduction in PBG level by measuring fold change at 1.6 mg/kg, po co-administered with maltose and measured after 30 mins by glucometer relative to miglitol", "type": "functional", "details": "0.5 h"}, "[32]": {"tested_on": "Mus musculus", "test": "Hypoglycemic activity in C57BL/6J mouse assessed as blood glucose level at 1.6 mg/kg, po co-administered with maltose and measured after 15 mins by glucometer (380.8 +/- 20.6 mg/dL)", "type": "functional", "details": "0.25 h"}, "[33]": {"tested_on": "Mus musculus", "test": "Relative hypoglycemic rate in C57BL/6J mouse assessed as reduction in PBG level by measuring fold change at 1.6 mg/kg, po co-administered with maltose and measured after 30 mins by glucometer relative to miglitol", "type": "functional", "details": "0.5 h"}, "[34]": {"test": "Toxicity in C57BL/6J mouse assessed as effect on spleen morphology at 1.6 mg/kg, po co-administered with maltose for 7 days by Hematoxylin and eosin staining based analysis", "type": "organism-based", "details": "in vivo, 168 h, time 7 day"}}, "note": "pKi: −log10 of the molar value."}
{"smiles": "CCCCCCCCCCCCCCCCCCNC(=O)CN(Cc1cn(CCCCCCN2C[C@H](O)[C@@H](O)[C@H](O)[C@H]2CO)nn1)C(=O)CN(Cc1cn(CCCCCCN2C[C@H](O)[C@@H](O)[C@H](O)[C@H]2CO)nn1)C(=O)CN(Cc1cn(CCCCCCN2C[C@H](O)[C@@H](O)[C@H](O)[C@H]2CO)nn1)C(=O)CN(Cc1cn(CCCCCCN2C[C@H](O)[C@@H](O)[C@H](O)[C@H]2CO)nn1)C(C)=O", "values": [{"measurement": "Activity", "setting": "[1]", "result": 351, "unit": "mg/dL"}, {"measurement": "Activity", "setting": "[2]", "result": 138, "unit": "nm"}, {"measurement": "Activity", "setting": "[3]", "result": 309.9, "unit": "mg/dL"}, {"measurement": "Drug uptake", "setting": "[4]", "result": "Not Active"}, {"measurement": "Drug uptake", "setting": "[5]", "result": "Not Active"}, {"measurement": "Activity", "setting": "[6]", "result": "Non-Toxic"}, {"measurement": "Activity", "setting": "[7]", "result": "Non-Toxic"}, {"measurement": "Activity", "setting": "[8]", "result": 22.2, "unit": "%"}, {"measurement": "Activity", "setting": "[9]", "result": 18.8, "unit": "%"}, {"measurement": "Ka", "setting": "[10]", "result": 5680, "unit": "M⁻¹"}, {"measurement": "Activity", "setting": "[11]", "result": 243, "unit": "nm"}, {"measurement": "Activity", "setting": "[12]", "result": 14.2, "unit": "%"}, {"measurement": "Activity", "setting": "[13]", "result": "Non-Toxic"}, {"measurement": "Flu intensity", "setting": "[14]", "result": 2300}, {"measurement": "Activity", "setting": "[15]", "result": 7.6, "unit": "%"}, {"measurement": "Activity", "setting": "[16]", "result": 432.6, "unit": "mg/dL"}, {"measurement": "Activity", "setting": "[17]", "result": 18.6, "unit": "%"}, {"measurement": "Flu intensity", "setting": "[18]", "result": 1001}, {"measurement": "Activity", "setting": "[19]", "result": 195, "unit": "nm"}, {"measurement": "Activity", "setting": "[20]", "result": "Dose-Dependent Effect"}, {"measurement": "pKi", "setting": "[21]", "result": 5.57}, {"measurement": "Activity", "setting": "[22]", "result": 283, "unit": "nm"}, {"measurement": "viability at 44 h, 125 µM", "setting": "[23]", "result": "> 80", "unit": "%"}, {"measurement": "Activity", "setting": "[24]", "result": 326.5, "unit": "mg/dL"}, {"measurement": "Drug uptake", "setting": "[25]", "result": "Not Active"}, {"measurement": "Drug uptake", "setting": "[26]", "result": "Not Active"}, {"measurement": "Activity", "setting": "[27]", "result": 285, "unit": "nm"}, {"measurement": "Activity", "setting": "[28]", "result": 419.7, "unit": "mg/dL"}, {"measurement": "Drug uptake", "setting": "[29]", "result": "Active"}, {"measurement": "pKi", "setting": "[30]", "result": 6.77}, {"measurement": "fold change (FC)", "setting": "[31]", "result": 3}, {"measurement": "Activity", "setting": "[32]", "result": 302.04, "unit": "mg/dL"}, {"measurement": "fold change (FC)", "setting": "[33]", "result": 1.8}, {"measurement": "Activity", "setting": "[34]", "result": "Non-Toxic"}]}
